Laboratory results taken from patent US20150018384A1, “TREATMENT FOR HIGH CHOLESTEROL” (FibroGen, Inc., priority 2012, published 2015).
Blank lines part the entries; values can stand above or below the compound they belong to.

Test system: Cholesterol Biosynthesis Genes in the Mouse Liver
Assay: Microarray expression of cholesterol biosynthesis genes in mouse liver
Type: in vivo
Method: A number of PHI compounds were evaluated for their effect on the expression of cholesterol biosynthesis genes in mouse liver. […] Liver tissue was harvested and stored in RNALater (Life Technologies). Total RNA was isolated with Trizol (Life Technologies) and purified with RNEasy96 (Qiagen) according to the manufacturers' protocols. RNA concentration was measured by NanoDrop (Thermo), and quality was assessed by Bioanalyzer (Agilent).
Biotinylated microarray probe was prepared using the 3′IVT Express kit (Affymetrix) and hybridized to mouse 430A 2.0 arrays as recommended in the manufacturer's protocol. Arrays were stained, washed, and scanned using Affymetrix equipment and software. Three arrays were run for each treatment and time point, each representing the liver sample from one individual animal.
Animals were sacrificed 4 h or 8 h later. Each compound was tested in a separate animal study with separate controls. Liver tissue was harvested and stored in RNALater (Life Technologies). Total RNA was isolated with Trizol (Life Technologies) and purified with RNEasy96 (Qiagen) according to the manufacturers' protocols. RNA concentration was measured by NanoDrop (Thermo), and quality was assessed by Bioanalyzer (Agilent).
For microarray analysis, RNA from animals in each treatment group was pooled in pairs (n=3 pairs for 4 h vehicle, n=2 pairs for all other treatment groups, for a total of 13 arrays per compound study). This approach was used to improve the signal-to-noise ratio on microarrays. Biotinylated probe was prepared using the One-Cycle cDNA synthesis kit (Affymetrix) and hybridized to mouse 430A 2.0 arrays as recommended in the manufacturer's protocol. Arrays were stained, washed, and scanned using Affymetrix equipment and software.
Array quality was assessed with GeneChip Operating System and/or Command Console software (Affymetrix). CEL files were uploaded to GeneSpring 7.3.1 (Agilent) using GC-RMA baseline correction. Principal Components Analysis was used to identify and reject outlier arrays. Data are reported as fold-change compared to timepoint-matched vehicle controls from the same study. Values less than 1.0 indicate a reduction of RNA in the treated animal liver tissue.

- 3-hydroxy-3-methylglutaryl-Coenzyme A reductase (Hmgcr) RNA expression (10 mg/kg oral, 4 h): 0.17 fold-change
- 3-hydroxy-3-methylglutaryl-Coenzyme A synthase 1 (Hmgcs1) RNA expression (10 mg/kg oral, 4 h): 0.36 fold-change
- 7-dehydrocholesterol reductase (Dhcr7) RNA expression (10 mg/kg oral, 4 h): 0.63 fold-change
- NAD(P) dependent steroid dehydrogenase-like (Nsdhl) RNA expression (10 mg/kg oral, 4 h): 0.55 fold-change
- acetyl-Coenzyme A acetyltransferase 2 (Acat2) RNA expression (10 mg/kg oral, 4 h): 0.77 fold-change
- farnesyl diphosphate farnesyl transferase 1 (Fdft1) RNA expression (10 mg/kg oral, 4 h): 0.56 fold-change
- farnesyl diphosphate synthetase (Fdps) RNA expression (10 mg/kg oral, 4 h): 0.43 fold-change
- isopentenyl-diphosphate delta isomerase (Idi1) RNA expression (10 mg/kg oral, 4 h): 0.50 fold-change
- mevalonate (diphospho) decarboxylase (Mvd) RNA expression (10 mg/kg oral, 4 h): 0.28 fold-change
- mevalonate kinase (Mvk) RNA expression (10 mg/kg oral, 4 h): 0.76 fold-change
- phosphomevalonate kinase (Pmvk) RNA expression (10 mg/kg oral, 4 h): 0.66 fold-change
- squalene epoxidase (Sqle) RNA expression (10 mg/kg oral, 4 h): 0.48 fold-change
- sterol-C4-methyl oxidase-like (Sc4mol) RNA expression (10 mg/kg oral, 4 h): 0.39 fold-change
- sterol-C5-desaturase (fungal ERG3, delta-5-desaturase) homolog (S. cerevisae) (Sc5d) RNA expression (10 mg/kg oral, 4 h): 0.49 fold-change
- 3-hydroxy-3-methylglutaryl-Coenzyme A reductase (Hmgcr) RNA expression (10 mg/kg oral, 8 h): 0.66 fold-change
- 3-hydroxy-3-methylglutaryl-Coenzyme A synthase 1 (Hmgcs1) RNA expression (10 mg/kg oral, 8 h): 1.23 fold-change
- 7-dehydrocholesterol reductase (Dhcr7) RNA expression (10 mg/kg oral, 8 h): 1.18 fold-change
- NAD(P) dependent steroid dehydrogenase-like (Nsdhl) RNA expression (10 mg/kg oral, 8 h): 1.40 fold-change
- acetyl-Coenzyme A acetyltransferase 2 (Acat2) RNA expression (10 mg/kg oral, 8 h): 1.09 fold-change
- farnesyl diphosphate farnesyl transferase 1 (Fdft1) RNA expression (10 mg/kg oral, 8 h): 1.42 fold-change
- farnesyl diphosphate synthetase (Fdps) RNA expression (10 mg/kg oral, 8 h): 1.15 fold-change
- isopentenyl-diphosphate delta isomerase (Idi1) RNA expression (10 mg/kg oral, 8 h): 1.08 fold-change
- mevalonate (diphospho) decarboxylase (Mvd) RNA expression (10 mg/kg oral, 8 h): 0.58 fold-change
- mevalonate kinase (Mvk) RNA expression (10 mg/kg oral, 8 h): 0.88 fold-change
- phosphomevalonate kinase (Pmvk) RNA expression (10 mg/kg oral, 8 h): 1.53 fold-change
- squalene epoxidase (Sqle) RNA expression (10 mg/kg oral, 8 h): 0.81 fold-change
- sterol-C4-methyl oxidase-like (Sc4mol) RNA expression (10 mg/kg oral, 8 h): 0.92 fold-change
- sterol-C5-desaturase (fungal ERG3, delta-5-desaturase) homolog (S. cerevisae) (Sc5d) RNA expression (10 mg/kg oral, 8 h): 0.52 fold-change
SMILES: COc1ccc(Cn2c(Cl)c(Cl)c3c(O)c(C(=O)NCC(=O)O)nc(C#N)c32)cc1 [Compound F]
- cytochrome P450, family 51 (Cyp51) RNA expression (10 mg/kg oral, 4 h): 0.62 fold-change
- lanosterol synthase (Lss) RNA expression (10 mg/kg oral, 4 h): 0.51 fold-change
- cytochrome P450, family 51 (Cyp51) RNA expression (10 mg/kg oral, 8 h): 1.05 fold-change
- lanosterol synthase (Lss) RNA expression (10 mg/kg oral, 8 h): 1.04 fold-change

SMILES: CC(C)Oc1ccc2c(O)c(C(=O)NCC(=O)O)nc(C#N)c2c1 [Compound H, [(1-Cyano-4-hydroxy-7-isopropoxy-isoquinoline-3-carbonyl)-amino]-acetic acid]
- 3-hydroxy-3-methylglutaryl-Coenzyme A reductase (Hmgcr) RNA expression (60 mg/kg oral, 4 h): 0.23 fold-change
- 3-hydroxy-3-methylglutaryl-Coenzyme A synthase 1 (Hmgcs1) RNA expression (60 mg/kg oral, 4 h): 0.62 fold-change
- 7-dehydrocholesterol reductase (Dhcr7) RNA expression (60 mg/kg oral, 4 h): 0.83 fold-change
- NAD(P) dependent steroid dehydrogenase-like (Nsdhl) RNA expression (60 mg/kg oral, 4 h): 0.76 fold-change
- acetyl-Coenzyme A acetyltransferase 2 (Acat2) RNA expression (60 mg/kg oral, 4 h): 0.71 fold-change
- cytochrome P450, family 51 (Cyp51) RNA expression (60 mg/kg oral, 4 h): 0.66 fold-change
- farnesyl diphosphate farnesyl transferase 1 (Fdft1) RNA expression (60 mg/kg oral, 4 h): 0.59 fold-change
- farnesyl diphosphate synthetase (Fdps) RNA expression (60 mg/kg oral, 4 h): 0.69 fold-change
- isopentenyl-diphosphate delta isomerase (Idi1) RNA expression (60 mg/kg oral, 4 h): 0.63 fold-change
- lanosterol synthase (Lss) RNA expression (60 mg/kg oral, 4 h): 0.65 fold-change
- mevalonate (diphospho) decarboxylase (Mvd) RNA expression (60 mg/kg oral, 4 h): 0.45 fold-change
- mevalonate kinase (Mvk) RNA expression (60 mg/kg oral, 4 h): 0.74 fold-change
- phosphomevalonate kinase (Pmvk) RNA expression (60 mg/kg oral, 4 h): 0.71 fold-change
- squalene epoxidase (Sqle) RNA expression (60 mg/kg oral, 4 h): 0.95 fold-change
- sterol-C4-methyl oxidase-like (Sc4mol) RNA expression (60 mg/kg oral, 4 h): 0.50 fold-change
- sterol-C5-desaturase (fungal ERG3, delta-5-desaturase) homolog (S. cerevisae) (Sc5d) RNA expression (60 mg/kg oral, 4 h): 0.92 fold-change
- 3-hydroxy-3-methylglutaryl-Coenzyme A reductase (Hmgcr) RNA expression (60 mg/kg oral, 8 h): 0.17 fold-change
- 3-hydroxy-3-methylglutaryl-Coenzyme A synthase 1 (Hmgcs1) RNA expression (60 mg/kg oral, 8 h): 0.19 fold-change
- 7-dehydrocholesterol reductase (Dhcr7) RNA expression (60 mg/kg oral, 8 h): 0.39 fold-change
- NAD(P) dependent steroid dehydrogenase-like (Nsdhl) RNA expression (60 mg/kg oral, 8 h): 0.34 fold-change
- acetyl-Coenzyme A acetyltransferase 2 (Acat2) RNA expression (60 mg/kg oral, 8 h): 0.44 fold-change
- cytochrome P450, family 51 (Cyp51) RNA expression (60 mg/kg oral, 8 h): 0.28 fold-change
- farnesyl diphosphate farnesyl transferase 1 (Fdft1) RNA expression (60 mg/kg oral, 8 h): 0.33 fold-change
- farnesyl diphosphate synthetase (Fdps) RNA expression (60 mg/kg oral, 8 h): 0.24 fold-change
- isopentenyl-diphosphate delta isomerase (Idi1) RNA expression (60 mg/kg oral, 8 h): 0.28 fold-change
- lanosterol synthase (Lss) RNA expression (60 mg/kg oral, 8 h): 0.35 fold-change
- mevalonate (diphospho) decarboxylase (Mvd) RNA expression (60 mg/kg oral, 8 h): 0.24 fold-change
- mevalonate kinase (Mvk) RNA expression (60 mg/kg oral, 8 h): 0.37 fold-change
- phosphomevalonate kinase (Pmvk) RNA expression (60 mg/kg oral, 8 h): 0.5 fold-change
- squalene epoxidase (Sqle) RNA expression (60 mg/kg oral, 8 h): 0.30 fold-change
- sterol-C4-methyl oxidase-like (Sc4mol) RNA expression (60 mg/kg oral, 8 h): 0.19 fold-change
- sterol-C5-desaturase (fungal ERG3, delta-5-desaturase) homolog (S. cerevisae) (Sc5d) RNA expression (60 mg/kg oral, 8 h): 0.61 fold-change
